Consider 18 compounds from patent publication US8158637B2, “Quinazolines useful as modulators of voltage gated ion channels” (Vertex Pharmaceuticals Incorporated, priority 2005, dated 2012).

A value given as a limit tells only on which side of the number the result lay.

The term IC50 denotes the midpoint of a concentration-inhibition curve.

The assay deals with T1, NaV 1.8 channel (Homo sapiens, UniProt Q9Y5Y9).
T1 construct: expressed in transfected cells; host or cells: HEK293
T1 sequence (Q9Y5Y9 whole entry): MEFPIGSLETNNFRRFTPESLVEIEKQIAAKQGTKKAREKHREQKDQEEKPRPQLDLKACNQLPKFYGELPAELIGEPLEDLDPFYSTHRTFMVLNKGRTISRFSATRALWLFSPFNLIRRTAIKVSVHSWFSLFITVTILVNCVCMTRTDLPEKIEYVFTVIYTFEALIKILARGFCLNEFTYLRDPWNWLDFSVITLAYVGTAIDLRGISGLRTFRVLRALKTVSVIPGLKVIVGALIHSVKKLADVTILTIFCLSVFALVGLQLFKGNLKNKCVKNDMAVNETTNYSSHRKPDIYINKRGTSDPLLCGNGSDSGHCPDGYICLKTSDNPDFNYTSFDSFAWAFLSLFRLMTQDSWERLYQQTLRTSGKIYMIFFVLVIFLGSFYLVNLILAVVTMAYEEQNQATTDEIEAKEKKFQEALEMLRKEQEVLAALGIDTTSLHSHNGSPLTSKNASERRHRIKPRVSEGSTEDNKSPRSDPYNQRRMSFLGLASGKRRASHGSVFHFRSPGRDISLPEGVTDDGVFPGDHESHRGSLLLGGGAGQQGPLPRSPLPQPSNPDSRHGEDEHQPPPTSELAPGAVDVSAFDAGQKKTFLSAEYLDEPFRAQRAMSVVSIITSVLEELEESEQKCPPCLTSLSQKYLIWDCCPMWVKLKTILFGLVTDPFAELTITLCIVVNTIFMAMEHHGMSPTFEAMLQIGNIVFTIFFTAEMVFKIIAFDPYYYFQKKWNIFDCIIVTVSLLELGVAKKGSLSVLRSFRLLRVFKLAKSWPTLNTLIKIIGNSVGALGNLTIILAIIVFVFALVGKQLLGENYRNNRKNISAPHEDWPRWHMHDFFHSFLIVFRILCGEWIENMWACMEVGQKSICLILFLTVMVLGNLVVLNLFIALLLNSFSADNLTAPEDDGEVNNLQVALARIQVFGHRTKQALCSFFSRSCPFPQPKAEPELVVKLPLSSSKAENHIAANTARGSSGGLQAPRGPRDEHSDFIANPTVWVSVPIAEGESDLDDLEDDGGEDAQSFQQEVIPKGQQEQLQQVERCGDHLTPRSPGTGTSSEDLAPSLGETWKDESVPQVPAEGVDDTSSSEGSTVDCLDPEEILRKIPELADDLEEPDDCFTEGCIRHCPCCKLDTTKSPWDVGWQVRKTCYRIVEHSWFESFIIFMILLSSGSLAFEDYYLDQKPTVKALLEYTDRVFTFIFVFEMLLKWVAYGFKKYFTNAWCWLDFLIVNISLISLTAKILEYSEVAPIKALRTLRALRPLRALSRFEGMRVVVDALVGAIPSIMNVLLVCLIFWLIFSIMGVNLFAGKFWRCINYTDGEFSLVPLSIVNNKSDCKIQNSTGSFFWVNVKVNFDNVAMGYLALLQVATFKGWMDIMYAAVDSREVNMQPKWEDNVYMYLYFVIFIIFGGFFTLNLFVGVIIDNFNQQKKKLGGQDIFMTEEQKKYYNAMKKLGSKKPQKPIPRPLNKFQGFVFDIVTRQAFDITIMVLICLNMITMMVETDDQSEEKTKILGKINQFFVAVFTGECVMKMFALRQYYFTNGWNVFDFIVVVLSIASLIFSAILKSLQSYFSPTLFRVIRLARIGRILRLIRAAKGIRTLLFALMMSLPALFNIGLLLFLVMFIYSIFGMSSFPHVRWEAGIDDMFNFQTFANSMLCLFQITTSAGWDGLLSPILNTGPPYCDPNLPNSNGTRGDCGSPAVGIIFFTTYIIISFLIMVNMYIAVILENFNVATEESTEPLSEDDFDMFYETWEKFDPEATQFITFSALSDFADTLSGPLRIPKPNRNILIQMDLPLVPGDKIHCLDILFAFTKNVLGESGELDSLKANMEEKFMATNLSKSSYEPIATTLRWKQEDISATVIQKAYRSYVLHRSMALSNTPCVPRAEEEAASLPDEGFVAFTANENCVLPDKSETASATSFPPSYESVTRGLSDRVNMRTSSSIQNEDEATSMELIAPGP
The assay can be described thus: VIPR optical membrane potential assay with electrical stimulation, NaV1.8 inhibition. The conditions noted are these: activity against NaV 1.8 channel. It is filed as cell-based. Here is the method:
Compounds of the invention are useful as antagonists of voltage-gated sodium ion channels. Antagonist properties of test compounds were assessed as follows. Cells expressing the NaV of interest were placed into microtiter plates. After an incubation period, the cells were stained with fluorescent dyes sensitive to the transmembrane potential. The test compounds were added to the microtiter plate. The cells were stimulated with either a chemical or electrical means to evoke a NaV dependent membrane potential change from unblocked channels, which was detected and measured with trans-membrane potential-sensitive dyes. Antagonists were detected as a decreased membrane potential response to the stimulus. The optical membrane potential assay utilized voltage-sensitive FRET sensors described by Gonzalez and Tsien (See, Gonzalez, J. E. and R. Y. Tsien (1995) “Voltage sensing by fluorescence resonance energy transfer in single cells” Biophys J 69(4): 1272-80, and Gonzalez, J. E. and R. Y. Tsien (1997) “Improved indicators of cell membrane potential that use fluorescence resonance energy transfer” Chem Biol 4(4): 269-77) in combination with instrumentation for measuring fluorescence changes such as the Voltage/Ion Probe Reader (VIPR®) (See, Gonzalez, J. E., K. Oades, et al. (1999) “Cell-based assays and instrumentation for screening ion-channel targets” Drug Discov Today 4(9): 431-439).
C) VIPR® Optical Membrane Potential Assay Method with Electrical Stimulation
The following was an example of how NaV1.8 inhibition activity was measured using the optical membrane potential method #2. Other subtypes were performed in an analogous mode in a cell line expressing the NaV of interest.
HEK293 cells stably expressing NaV1.8 were plated into 96-well microtiter plates. After an appropriate incubation period, the cells were stained with the voltage sensitive dyes CC2-DMPE/DiSBAC6(3) as follows.
2×CC2-DMPE/DiSBAC6(3)=8 μM CC2-DMPE/8 μM DiSBAC6(3): 10 mM CC2-DMPE and DiSBAC6(3) was vortexed with an equivalent volume of 10% pluronic, followed by vortexing in required amount of Bath Solution #1. Each cell plate required 5 mL of 2×CC2-DMPE/DiSBAC6(3). 50 μL of 2×CC2-DMPE/DiSBAC6(3) was added to wells containing washed cells, resulting in a 4 μM final staining concentration of both dyes. The cells were stained for 30 minutes in the dark at RT.
2×ABSC1=1 mM ABSC1: The required amount of 200 mM ABSC1 was added to a 50 ml conical tube and mixed with 1 μL 10% pluronic for each mL of solution made and vortexed together. Then Bath Solution #1 was added to make up a 2× solution. Finally, the ABSC1 was added.
The 2×ABSC1 solution was used to solvate compound plates. Note that compound plates were made at 2× drug concentration. The stained plate was washed again, leaving residual volume of 50 μL. Added 50 μL/well of the 2×ABSC1. The cells were stained for 30 minutes in the dark at RT.
The electrical stimulation instrument and methods of use are described in ION Channel Assay Methods PCT/US01/21652 and Nat Biotech 2006, 24(4), 439-446, both herein incorporated by reference. The instrument comprises a microtiter plate handler, an optical system for exciting the coumarin dye while simultaneously recording the coumarin and oxonol emissions, a waveform generator, a current- or voltage-controlled amplifier, and a device for inserting electrodes in well. Under integrated computer control, this instrument passed user-programmed electrical stimulus protocols to cells within the wells of the microtiter plate.
Assay Protocol • 1. Inserted or used electrodes into each well that was assayed. • 2. Used the current-controlled amplifier to deliver stimulation wave pulses for 3 s. Two seconds of pre-stimulus recording was performed to obtain the un-stimulated intensities. Five seconds of post-stimulation recording was performed to examine the relaxation to the resting state. […]
As for `COCCOC(=O)N[C@@H]1CCN(c2nc(-c3c(O)cccc3F)nc3cc(C)ccc23)C1` [Compound 1, (R)-2-Methoxyethyl 1-(2-(2-fluoro-6-hydroxyphenyl)-7-methylquinazolin-4-yl)pyrrolidin-3-ylcarbamate], the IC50 fell in the range of 1000 to 5000 nM.
Then `CCOC(=O)N[C@@H]1CCN(c2nc(-c3ccccc3O)nc3cc(C)ccc23)C1` [Compound 2, (R)-Ethyl 1-(2-(2-hydroxyphenyl)-7-methylquinazolin-4-yl)pyrrolidin-3-ylcarbamate], with below 1000 nM.
For `CCCOC(=O)N[C@@H]1CCN(c2nc(-c3ccccc3O)nc3cc(C)ccc23)C1` [Compound 3, (R)-Propyl 1-(2-(2-hydroxyphenyl)-7-methylquinazolin-4-yl)pyrrolidin-3-ylcarbamate] the value was below 1000 nM; for `CC(C)(C)COC(=O)N[C@@H]1CCN(c2nc(-c3ccccc3O)nc3ccc(F)cc23)C1` [Compound 4, (R)-Neopentyl 1-(6-fluoro-2-(2-hydroxyphenyl)quinazolin-4-yl)pyrrolidin-3-ylcarbamate], above 5000 nM.
Then `Cc1ccc2c(N3CC[C@@H](NC(=O)OCC(C)C)C3)nc(-c3ccccc3O)nc2c1` [Compound 5, (R)-Isobutyl 1-(2-(2-hydroxyphenyl)-7-methylquinazolin-4-yl)pyrrolidin-3-ylcarbamate], with below 1000 nM; and `COCCOC(=O)N[C@H]1CCN(c2nc(-c3ccccc3O)nc3cc(C)ccc23)C1` [Compound 6, (S)-{1-[2-(2-Hydroxy-phenyl)-7-methyl-quinazolin-4-yl]-pyrrolidin-3-yl}-carbamic acid 2-methoxy-ethyl ester], with above 5000 nM; and `Cc1ccc2c(N3CC[C@H](NC(=O)OCC(C)C)C3)nc(-c3ccccc3O)nc2c1` [Compound 7, (S)-{1-[2-(2-Hydroxy-phenyl)-7-methyl-quinazolin-4-yl]-pyrrolidin-3-yl}-carbamic acid isobutyl ester], with 1000 to 5000 nM.
In the case of `Cc1ccc2c(N3CC[C@@H](NC(=O)OCC(C)C)C3)nc(-c3c(O)cccc3F)nc2c1` [Compound 8, (R)-Isobutyl 1-(2-(2-fluoro-6-hydroxyphenyl)-7-methylquinazolin-4-yl)pyrrolidin-3-ylcarbamate], the 50% inhibitory concentration (IC50) is below 1000 nM.
On to `Cc1ccc2c(N3CC[C@@H](NC(=O)OCC(C)(C)C)C3)nc(-c3ccccc3O)nc2c1` [Compound 9, (R)-Neopentyl 1-(2-(2-hydroxyphenyl)-7-methylquinazolin-4-yl)pyrrolidin-3-ylcarbamate], for which the IC50 was below 1000 nM.
Turning to `CCOC(=O)N[C@@H]1CCN(c2nc(-c3c(O)cccc3F)nc3cc(C)ccc23)C1` [Compound 10, (R)-Ethyl 1-(2-(2-fluoro-6-hydroxyphenyl)-7-methylquinazolin-4-yl)pyrrolidin-3-ylcarbamate], the IC50 was 1000 to 5000 nM.
With `Cc1ccc2c(N3CC[C@@H](NC(=O)OCC(C)(C)C)C3)nc(-c3c(O)cccc3F)nc2c1` [Compound 11, (R)-Neopentyl 1-(2-(2-fluoro-6-hydroxyphenyl)-7-methylquinazolin-4-yl)pyrrolidin-3-ylcarbamate], the IC50 is below 1000 nM.
Then `Cc1ccc2c(N3CC[C@@H](NC(=O)OC(C)C)C3)nc(-c3ccccc3O)nc2c1` [Compound 12, (R)-Isopropyl 1-(2-(2-hydroxyphenyl)-7-methylquinazolin-4-yl)pyrrolidin-3-ylcarbamate], with below 1000 nM.
Then `CCCOC(=O)N[C@@H]1CCN(c2nc(-c3c(O)cccc3F)nc3cc(C)ccc23)C1` [Compound 13, (R)-Propyl 1-(2-(2-fluoro-6-hydroxyphenyl)-7-methylquinazolin-4-yl)pyrrolidin-3-ylcarbamate], with below 1000 nM.
Turning to `COCCOC(=O)N[C@@H]1CCN(c2nc(-c3ccccc3O)nc3cc(C)ccc23)C1` [Compound 14, (R)-2-Methoxyethyl 1-(2-(2-hydroxyphenyl)-7-methylquinazolin-4-yl)pyrrolidin-3-ylcarbamate], the IC50 was in the range of 1000 to 5000 nM.
In the case of `CC(C)COC(=O)N[C@@H]1CCN(c2nc(-c3ccccc3O)nc3ccc(F)cc23)C1` [Compound 15, (R)-Isobutyl 1-(6-fluoro-2-(2-hydroxyphenyl)quinazolin-4-yl)pyrrolidin-3-ylcarbamate], the concentration for half-maximal inhibition (IC50) lay in the range of 1000 to 5000 nM.
For `CC(C)OC(=O)N[C@@H]1CCN(c2nc(-c3ccccc3O)nc3ccc(F)cc23)C1` [Compound 16, (R)-Isopropyl 1-(6-fluoro-2-(2-hydroxyphenyl)quinazolin-4-yl)pyrrolidin-3-ylcarbamate] the value was 1000 to 5000 nM.
Then `Cc1ccc2c(N3CC[C@@H](NC(=O)OCC(C)C)C3)nc(-c3ccccc3C(F)F)nc2c1` [Compound 17, (R)-Isobutyl 1-(2-(2-(difluoromethyl)phenyl)-7-methylquinazolin-4-yl)pyrrolidin-3-ylcarbamate], with below 1000 nM; and `Cc1ccc2c(N3CC[C@@H](NC(=O)OCC(C)(C)C)C3)nc(-c3ccccc3C(F)F)nc2c1` [Compound 18, (R)-Neopentyl 1-(2-(2-(difluoromethyl)phenyl)-7-methylquinazolin-4-yl)pyrrolidin-3-ylcarbamate], with below 1000 nM.
